# Test results taken from US10143638B2, “Method of treating skin with ingenol mebutate” (LEO Laboratories Limited, priority 2009, dated 2018).
# Assays:
# Assay type in all cases: cell-based, human
# HAS1 = HAS1 gene expression by dermal fibroblasts (qPCR)
# Text: (§1) A normal adult skin biopsy (6 mm) was obtained (n=1), with informed consent, from an individual attending the Oral Surgery Clinic, School of Dentistry, Wales College of Medicine, Cardiff. Following the application of a local anaesthetic, the dermal biopsy was collected and adult dermal fibroblast cultures established by single cell suspension technique, following enzymic degradation of the specimen. This technique has previously been reliably used to establish viable primary cultures of both oral and dermal fibroblasts in vitro (Cook et al, 2000; Stephens et al, 2001; 2003). Dermal fibroblasts were cultured in Fibroblast-Serum Containing Medium, containing Dulbecco's Modified Eagle's Medium (DMEM), supplemented with L-glutamine (2 mM), antibiotics (100 U/ml) penicillin G sodium, […] streptomycin sulphate and 0.25 μg/ml amphotericin B) and 10% foetal calf serum (all purchased from Invitrogen Ltd., Paisley, U.K.). Dermal fibroblast cultures were maintained at 37° C., in a 5% CO2/95% air atmosphere, with the culture medium being changed every 2-3 days. Dermal fibroblasts were used between) passage 7-17, for all experiments.
# (§2) Following trypsinization, dermal fibroblasts were seeded in 24-well tissue culture plates, in PEP005-free, Fibroblast-Serum Containing Medium (1 ml), at a cell density of 2.5×10^4 cell/well. Dermal fibroblasts were maintained at 37° C., in a 5% CO2/95% air atmosphere, overnight. At this stage, the culture medium was replaced with Fibroblast-Serum Containing Medium (600 μl), containing 0 μg/ml, 0.01 μg/ml, 0.1 μg/ml, 1 μg/ml, 10 μg/ml or 100 μg/ml PEP005, +/−TGF-β1 (10 ng/ml) (three culture wells per PEP005 concentration). A control was also established, consisting of cells in Fibroblast-Serum Containing Medium, containing 1% DMSO. The dermal fibroblasts were maintained at 37° C., in a 5% CO2/95% air atmosphere, for 24 h or 72 h, prior to washing in PBS (3×1 ml) and Trizol® Reagent (250 μl) added to the cells, for 5 min at room temperature, to induce cell lysis. RNA was extracted by the phenol-chloroform method, as described above, while a cDNA library was generated via random hexamer RT, as described above. RNA (1 μg) was added to 100 µM random hexamer (1 μl), 5×RT Buffer (4 μl), 2.5 mM Deoxynucleoside Triphosphates (dNTPs, 5 μl), 2 μl DTT and Nuclease-Free Water, were added to the reaction (total volume, 20 μl). To denature the RNA, reaction tubes were placed in a GeneAmp PCR System 9700 (Applied Biosystems, Cheshire, U.K.) and heated for 5 min/95° C., prior to cooling to 4° C. Superscript (1 μl) and RNAsin® Ribonuclease Inhibitor (1 μl, Promega, Hampshire, U.K.) were added to each tube, and the tubes subjected to […] at 20° C. for 10 min, 42° C. for 1 h and 95° C. for 5 min, prior to storage at 4° C., until required. As a negative control, RT was also performed, with Nuclease-Free Water replacing the RNA sample.
# (§3) qPCR was performed, as described above, with the probe and primers for HAS1, HAS2 and HAS3 (target genes) and the 18s ribosomal RNA (reference gene), designed and supplied by Applied Biosystems. PCR was performed in a final volume of 20 μl/sample, with each reaction mix consisting of cDNA (1 μl), target gene primers and probe (1 μl), Taqman® FAST Universal PCR Master Mix (10 μl, Applied Biosystems), and Nuclease-Free Water (8 μl). PCR amplification was performed, using an initial cycle of 95° C. for 1 s, followed by 40 cycles of 60° C. for 20 s. A cDNA-free control was also included. Again, the comparative CT method was used for relative quantification of gene expression. Each experiment was performed on three separate occasions.
# HAS3 = HAS3 gene expression by dermal fibroblasts (qPCR)
# Text: as §1, §2, §3
# dermal fibroblasts = assay: Hyaluronan pericellular coat formation by dermal fibroblasts (particle exclusion assay)
# Text: as §1
# Following trypsinization, dermal fibroblasts were seeded in 53 mm bacteriological grade culture dishes (VWR International Ltd., Leicestershire, U.K.), in PEP005-free, Fibroblast-Serum Containing Medium (2 ml), at a density of 7×10^4 cell/dish. Dermal fibroblasts were maintained at 37° C., in a 5% CO2/95% air atmosphere, overnight, prior to washing in PBS (2×2 ml) and maintenance in serum-free, Fibroblast-Serum Containing Medium (2 ml), containing 0 μg/ml, 0.01 μg/ml, 0.1 μg/ml, 1 μg/ml, 10 μg/ml or 100 μg/ml PEP005, +/−TGF-β1 (10 ng/ml) (three culture dishes per PEP005 concentration). A control was also established, consisting of cells in serum-free, Fibroblast-Serum Containing Medium, containing 1% DMSO. The dermal fibroblasts were maintained at 37° C., in a 5% CO2/95% air atmosphere, for 24 h or 72 h. At 24 h and 72 h, the culture dishes were treated with formalized horse blood erythrocytes (TCS Biosciences Ltd., Buckinghamshire, U.K.). The formalized horse blood erythrocytes were washed in PBS, to remove sodium azide (3×20 ml) and centrifuged at 100 g/7 min, at 4° C. The erythrocyte cell pellet obtained was re-suspended in serum-free, Fibroblast-Serum Containing Medium, to a density of 1×10^8 cells/ml. Aliquots of the erythrocyte cell suspension (500 μl) were supplemented to each culture dish and the dishes agitated, prior to maintenance at 37° C., in a 5% CO2/95% air atmosphere, for 15 min. Zones of erythrocyte exclusion were visualized by light microscopy, using a Zeiss Axiovery 135 Inverted Microscope (Carl Zeiss Ltd., Hertfordshire, U.K.), with a Hamamatsun C5985 chilled CCD camera (Hamamatsu Photonics U.K. Ltd., Hertfordshire, U.K.) and using Openlab Software 3.0.8 (Improvision Ltd., Warwickshire, U.K.). Each experiment was performed on three separate occasions.
smiles,measurement,setting,value
"C/C=C(/C)C(=O)O[C@H]1C(C)=C[C@]23C(=O)[C@@H](C=C(CO)[C@@H](O)[C@]12O)[C@H]1[C@@H](C[C@H]3C)C1(C)C [PEP005, ingenol-3-angelate]",HAS1 expression,"HAS1; PEP005 0.01-100 μg/ml plus TGF-β1 (10 ng/ml), 24 h, p<0.05 at 0.01 μg/ml, p<0.01 at 100 μg/ml",general down-regulation
same,HAS1 expression,"HAS1; PEP005 0.01-100 μg/ml plus TGF-β1 (10 ng/ml), 72 h, non-significant (p>0.05)",general down-regulation
same,HAS1 expression,"HAS1; PEP005, absence of TGF-β1, 24 h",no obvious effects
same,HAS1 expression,"HAS1; PEP005, absence of TGF-β1, 72 h",no obvious effects
same,HAS3 expression,"HAS3; PEP005 0.01-100 μg/ml plus TGF-β1 (10 ng/ml), 72 h (p>0.05)",no significant effects
same,HAS3 expression,"HAS3; PEP005 0.01-100 μg/ml, absence of TGF-β1, 24 h, non-significant (p>0.05)",completely abolished
same,HAS3 expression,"HAS3; PEP005 0.1-10 μg/ml plus TGF-β1 (10 ng/ml), 24 h, down-regulation, non-significant (p>0.05)",barely detectable levels
same,HAS3 gene expression,"HAS3; PEP005 1-10 μg/ml, absence of TGF-β1, 72 h, non-significant (p>0.05)",up-regulation
same,changes in cellular morphology,"dermal fibroblasts; PEP005 0.01-10 μg/ml plus TGF-β1 (10 ng/ml), 72 h",consistent with the presence of myofibroblasts
same,hyaluronan pericellular coat formation,"dermal fibroblasts; PEP005 0.01-10 μg/ml plus TGF-β1 (10 ng/ml), 72 h, compared to PEP005-free controls",even further enhanced
same,morphological changes in fibroblasts,"dermal fibroblasts; PEP005 0.01-10 μg/ml, absence of TGF-β1, 72 h",consistent with the presence of myofibroblasts
same,hyaluronan pericellular coat size,"dermal fibroblasts; PEP005 0.01-10 μg/ml, absence of TGF-β1, 72 h, compared to PEP005-free controls",increase pericellular coat size
same,hyaluronan pericellular coat formation,"dermal fibroblasts; PEP005-treated cultures, absence of TGF-β1, 24 h",little pericellular coat formation
same,hyaluronan pericellular coat formation,"dermal fibroblasts; PEP005 plus TGF-β1 (10 ng/ml), 24 h, compared to untreated controls and to PEP005 without TGF-β1",major synergistic effect
